Drawing on article PMC6222927, “Aminobenzosuberone Scaffold as a Modular Chemical Tool for the Inhibition of Therapeutically Relevant M1 Aminopeptidases” (Molecules : A Journal of Synthetic Chemistry and Natural …, 2018), this text covers IC50 and Ki for one molecule.

In assay [1] the target is T1, human endoplasmic reticulum aminopeptidase 1 (rHsERAP1) (Homo sapiens, UniProt Q9NZ08).
T1 construct: made in house; host or cells: Hi5 insect cells (baculovirus produced in sf9)
Kind of assay: rHsERAP1 inhibition, L-AMC fluorigenic substrate. Format: biochemical. To be noted: 50 µM L-AMC. On the procedure: The enzymatic activity of HsERAP1, HsERAP2 and HsIRAP was determined by following the time-dependent increase in fluorescence at 460 nm (excitation: 380 nm) of the fluorigenic substrates L-Leucine-7-amido-4-methyl coumarin (L-AMC; Sigma, Darmstatd, Germany) for HsERAP1 and HsIRAP and L-arginyl-7-amido-4-methyl coumarin (R-AMC; Sigma) for HsERAP2. […] The reaction was followed for 10 min at room temperature and the remaining enzymatic activity was calculated by measuring the slope of the time course.

A further assay concerns the target T2, P. falciparum rPfAM17 (Plasmodium falciparum, UniProt Q8IL11).
T2 construct: made in house; host or cells: Escherichia coli Rosetta 2 (DE3)
T2 sequence (Q8IL11 1-605): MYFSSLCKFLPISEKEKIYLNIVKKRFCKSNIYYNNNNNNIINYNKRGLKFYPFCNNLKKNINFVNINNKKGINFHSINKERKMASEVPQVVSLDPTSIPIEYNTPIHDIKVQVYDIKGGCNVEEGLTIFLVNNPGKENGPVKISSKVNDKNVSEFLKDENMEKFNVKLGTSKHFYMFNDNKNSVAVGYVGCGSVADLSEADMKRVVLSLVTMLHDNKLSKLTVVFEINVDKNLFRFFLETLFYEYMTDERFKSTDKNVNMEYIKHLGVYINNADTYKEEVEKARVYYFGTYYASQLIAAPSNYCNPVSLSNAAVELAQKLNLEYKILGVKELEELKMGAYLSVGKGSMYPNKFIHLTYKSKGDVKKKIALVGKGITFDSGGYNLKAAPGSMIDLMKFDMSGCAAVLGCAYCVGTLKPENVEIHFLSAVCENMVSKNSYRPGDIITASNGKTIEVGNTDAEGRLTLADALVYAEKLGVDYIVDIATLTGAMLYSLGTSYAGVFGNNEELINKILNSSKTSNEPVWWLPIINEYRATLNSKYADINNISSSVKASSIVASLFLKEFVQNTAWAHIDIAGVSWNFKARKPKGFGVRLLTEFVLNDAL
Kind of assay: rPfAM17 inhibition, Leu-pNA substrate, Dixon plots. Format: biochemical. As for the experimental part:
Tests were carried out on HP/Agilent UV-Visible diode array spectrophotometer 8453 (HP/Agilent, Santa Clara, CA, USA), at 30 °C in Tris HCl 50 mM pH 7.4 for rPfAM1 and pH 8 for rPfAM17, with a final DMSO concentration of 1%. […]. […] Initial velocities were measured with increasing concentrations of inhibitors and Ki values were determined by Dixon plots in triplicate.

The target in assay [2] is aminopeptidase from A. proteolytica (AAP). The arrangement: method as in PMID 21843945. To be noted: ref 58; cited from earlier work.

Structures are written as SMILES. Some results are limits rather than exact numbers.

T1 sequence (Q9NZ08 whole entry): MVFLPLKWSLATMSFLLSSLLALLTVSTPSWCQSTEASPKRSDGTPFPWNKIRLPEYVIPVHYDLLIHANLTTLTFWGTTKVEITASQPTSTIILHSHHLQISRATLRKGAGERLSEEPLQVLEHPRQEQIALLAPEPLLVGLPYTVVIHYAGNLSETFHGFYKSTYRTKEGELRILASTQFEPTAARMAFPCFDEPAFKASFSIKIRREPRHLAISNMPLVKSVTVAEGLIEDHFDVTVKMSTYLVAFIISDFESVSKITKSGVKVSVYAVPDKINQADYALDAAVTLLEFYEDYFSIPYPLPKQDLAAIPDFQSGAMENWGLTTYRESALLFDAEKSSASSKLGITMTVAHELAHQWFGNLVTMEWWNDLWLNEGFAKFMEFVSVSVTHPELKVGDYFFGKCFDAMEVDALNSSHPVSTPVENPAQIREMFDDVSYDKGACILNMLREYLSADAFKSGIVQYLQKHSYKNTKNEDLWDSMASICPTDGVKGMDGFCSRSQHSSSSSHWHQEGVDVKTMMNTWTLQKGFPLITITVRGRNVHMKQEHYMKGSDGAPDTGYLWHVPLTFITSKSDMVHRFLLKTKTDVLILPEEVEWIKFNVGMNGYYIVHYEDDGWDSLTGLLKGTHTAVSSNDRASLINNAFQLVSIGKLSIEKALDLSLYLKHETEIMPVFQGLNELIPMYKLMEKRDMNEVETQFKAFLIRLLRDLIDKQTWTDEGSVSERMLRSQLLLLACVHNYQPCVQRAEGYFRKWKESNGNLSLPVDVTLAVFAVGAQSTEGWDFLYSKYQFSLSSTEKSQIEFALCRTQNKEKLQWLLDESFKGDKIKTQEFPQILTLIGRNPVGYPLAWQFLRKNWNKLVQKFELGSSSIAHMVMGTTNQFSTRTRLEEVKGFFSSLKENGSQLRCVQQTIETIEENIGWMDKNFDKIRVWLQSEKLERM

As a reminder, the IC50 is the concentration that gives 50% inhibition. Read a high IC50 as a need for much substance. What is called Ki is a dissociation constant, usually derived from enzyme kinetics or from competition with a known ligand. The molecule `NC1CCc2c(Br)cccc2CC1=O` (stereo not drawn) [21e] showed an IC50 in assay [1] of 56 ± 7 µM. Besides, the inhibitory constant (Ki) (at P. falciparum rPfAM17; in assay [2]) was > 100 µM in each case.
